Source: patent US9612237B2, “Ritalinic acid immunoassay” (Randox Laboratories Limited, priority 2013, dated 2017)
Where a name gives a salt, the structure may show the parent alone.

The compounds below were run on antisera generated in response to immunogen of Example 11 (assay: Competitive chemiluminescent biochip immunoassay, antisera raised against immunogen of Example 11, conjugate of Example 12). Conditions: not given.
Format: binding, sheep

Row | SMILES | Concentration exhibiting no cross-reactivity
1 | CN1CCCC1c1cccnc1 (single isomer, unassigned; (-)) [(−)-nicotine] | 22 µg/mL
2 | Oc1cccc(N2CCNCC2)c1 [1-(3-hydroxyphenyl)-piperazine] | 0.4 µg/mL
3 | CC(=O)Nc1ccc(O)c(SC[C@H](NC(C)=O)C(=O)[O-])c1.[Na+] [3-(N-acetyl-L-cystein-s-yl) acetaminophen sodium salt] | 250 µg/mL
4 | CC(=O)Nc1ccc(O)c(SC[C@H](N)C(=O)O)c1.O=C(O)C(F)(F)F [3-cysteinylacetaminophen trifluoroacetic acid salt] | 250 µg/mL
5 | CC(=O)Nc1ccc(OS(=O)(=O)[O-])cc1.[K+] [4-acetaminophen sulphate potassium salt] | 250 µg/mL
6 | Cl.NC1CCC(c2ccc(Cl)c(Cl)c2)c2ccccc21 (stereo not shown) [N-desmethyl sertraline HCl] | 10 µg/mL
7 | CN1C(=O)CN=C(c2ccccc2)c2cc(Cl)ccc21 [diazepam] | 3 µg/mL
8 | COc1ccc2cc([C@H](C)C(=O)O)ccc2c1 [naproxen] | 250 µg/mL
9 | CNCCC=C1c2ccccc2CCc2ccccc21 [nortriptyline HCl] | 10 µg/mL
10 | CN(C(=O)O[C@@H]1O[C@H](C(=O)O)[C@@H](O)[C@H](O)[C@H]1O)[C@H]1CC[C@@H](c2ccc(Cl)c(Cl)c2)c2ccccc21 [sertraline carbamoyl glocuronide] | 3 µg/mL

Same assay, conditions: biochip; relative to methylphenidate = 100

Row | SMILES | % cross reactivity
11 | CCOC(=O)[C@@H](c1ccccc1)[C@H]1CCCCN1.Cl (racemic) [rac-erythro-ethylphenidate HCl] | 1.9%
12 | CN[C@@H](C)[C@@H](O)c1ccccc1.Cl [(+)-pseudoephedrine HCl] | 0.2%
13 | c1ccc(C2(N3CCCCC3)CCCCC2)cc1 [PCP] | <0.1%
14 | CCN(CC)CCN1C(=O)CN=C(c2ccccc2F)c2cc(Cl)ccc21 [flurazepam] | <1%

Same assay, conditions: value is the concentration at which no cross-reactivity was exhibited

Row | SMILES | Concentration exhibiting no cross-reactivity
15 | CNCC1CCCCC1(O)c1cccc(O)c1 (racemic) [rac N,O-didesmethyl tramadol] | 0.18 µg/mL
16 | COc1cccc(C2(O)CCCCC2CN)c1.Cl (racemic) [rac N-bisdesmethyl tramadol HCl] | 0.18 µg/mL
17 | CC(C(=O)O)c1ccc(CC(C)(C)O)cc1 (racemic) [rac-2-hydroxy ibuprofen] | 125 µg/mL
18 | CCC(=O)OC(Cc1ccccc1)(c1ccccc1)C(C)CNC.O=C(O)/C=C\C(=O)O (single isomer, unassigned; (+)) [(+)-norpropoxyphene maleate] | 10 µg/mL
19 | c1ccc(CN2CCNCC2)cc1 [1-benzylpiperiazine] | 10 µg/mL
20 | O=C(O)c1cccc(O)c1O [2,3-dihydroxy benzoic acid] | 250 µg/mL
21 | COc1ccc2c(c1)[C@@]13CCCC[C@H]1[C@@H](C2)NCC3.Cl [3-methoxymorphinan HCl] | 0.25 µg/mL
22 | CC(=O)Nc1ccc(O[C@@H]2O[C@H](C(=O)[O-])[C@@H](O)[C@H](O)[C@H]2O)cc1.[Na+] [4-acetamidophenyl β-D-glucuronide sodium salt] | 250 µg/mL
23 | Nc1ccc(C(=O)O)c(O)c1 [4-aminosalicylic acid] | 250 µg/mL
24 | CN1C(=O)CN=C(c2ccccc2F)c2cc(N)ccc21 [7-NH flunitrazepam] | 10 µg/mL
25 | CC(C)Cc1ccc([C@@H](C)C(=O)O)cc1 [(R)-(−)-ibuprofen] | 250 µg/mL
26 | CN(C)CCC[C@]1(c2ccc(F)cc2)OCc2cc(C#N)ccc21.O=C(O)C(=O)O [(R)-citalopram oxalate] | 1.5 µg/mL
27 | CN1C(=O)CC[C@H]1c1cccnc1 [(−)-cotinine] | 22 µg/mL
28 | C[C@H](N)Cc1ccccc1 [D-amphetamine] | 10 µg/mL
29 | O=C[C@H](O)[C@@H](O)[C@H](O)[C@H](O)C(=O)O [D-glucuronic acid] | 60 µg/mL
30 | CCN(CC)C(=O)[C@@H]1C=C2c3cccc4[nH]cc(c34)C[C@H]2N(C)C1 [LSD] | 10 µg/mL
31 | CN[C@@H](C)Cc1ccccc1 [MAMP] | 2.5 µg/mL
32 | CNC(C)Cc1ccc2c(c1)OCO2 (stereo not shown) [MDMA] | 5 µg/mL
33 | CC(=O)N=C1C=CC(=O)C=C1 [N-acetylbenzoquinomeimine] | 125 µg/mL

Row | SMILES | Concentration exhibiting no cross-reactivity
34 | Oc1ccc2c(c1)[C@@]13CCCC[C@H]1[C@@H](C2)NCC3 [N-desmethyl dextorphan] | 0.25 µg/mL
35 | Br.CNCCC[C@@]1(c2ccc(F)cc2)OCc2cc(C#N)ccc21 [N-desmethyl escitalopram hydrobromide] | 10 µg/mL
36 | CC(C)Cc1ccc(C(C)C(=O)O)cc1 (stereo not drawn) [S-(+)-ibuprofen] | 250 µg/mL
37 | CC(=O)Oc1ccccc1C(=O)O [aspirin] | 250 µg/mL
38 | CC(=O)Nc1ccc(OC(=O)c2ccccc2OC(C)=O)cc1 [benorylate HCl] | 250 µg/mL
39 | O=C(O)c1ccccc1 [benzoic acid] | 250 µg/mL
40 | COc1ccc2c3c1O[C@H]1[C@@H](O)C=C[C@H]4[C@@H](C2)N(C)CC[C@@]341 [codeine] | 0.25 µg/mL
41 | CCCCCc1cc(O)c2c(c1)OC(C)(C)[C@@H]1CCC(C)=C[C@@H]21 [delta-9-THC] | 10 µg/mL
42 | COc1ccc2c(c1)[C@]13CCCC[C@@H]1[C@H](C2)N(C)CC3 [dextromethorphan hydrobromide monohydrate] | 10 µg/mL
43 | O=C(O)c1cc(-c2ccc(F)cc2F)ccc1O [diflusinal] | 250 µg/mL
44 | CCc1nn(CCCN2CCN(c3cccc(Cl)c3)CC2)c(=O)n1CC [etoperidone HCl] | 0.4 µg/mL
45 | CNCCC(Oc1ccc(C(F)(F)F)cc1)c1ccccc1 (stereo not shown) [fluoxetine HCl] | 10 µg/mL
46 | O=C(O)c1cc(O)ccc1O [gentisic acid] | 250 µg/mL
47 | O=C(O)CNC(=O)c1cc(O)ccc1O [gentisuric acid] | 250 µg/mL
48 | CC(=O)Oc1ccc2c3c1O[C@H]1[C@@H](OC(C)=O)C=C[C@H]4[C@@H](C2)N(C)CC[C@@]341 [heroin] | 10 µg/mL
49 | COc1ccc2c3c1O[C@H]1C(=O)CC[C@H]4[C@@H](C2)N(C)CC[C@]314 [hydrocodone] | 10 µg/mL
50 | CC(C)Cc1ccc(CC(=O)O)cc1 [ibufenac] | 250 µg/mL
51 | CC(Cc1ccc(C(C)C(=O)O)cc1)C(=O)O (stereo not shown) [ibuprofen carboxylic acid] | 250 µg/mL
52 | CC(C(=O)O)c1cccc(C(=O)c2ccccc2)c1 (stereo not shown) [ketoprofen] | 250 µg/mL

Row | SMILES | Concentration exhibiting no cross-reactivity
53 | CN1CC[C@]23CCCC[C@H]2[C@H]1Cc1ccc(O)cc13 [levorphanol] | 0.25 µg/mL
54 | O=C1Nc2ccc(Cl)cc2C(c2ccccc2Cl)=NC1O (stereo not shown) [lorazepam] | 3 µg/mL
55 | CCC(C)C(C)(COC(N)=O)COC(N)=O (stereo not shown) [mebutamate] | 0.35 µg/mL
56 | CCCC(C)(COC(N)=O)COC(N)=O [meprobamate] | 10 µg/mL
57 | COc1ccc(NC(C)=O)cc1 [methacetin] | 250 µg/mL
58 | CCC(=O)C(CC(C)N(C)C)(c1ccccc1)c1ccccc1 (stereo not shown) [methadone] | 10 µg/mL
59 | Cc1ccccc1-n1c(C)nc2ccccc2c1=O [methaqualone] | 10 µg/mL
60 | COC(=O)c1ccccc1O [methyl salicylate] | 250 µg/mL
61 | O=C1CN=C(c2ccccc2)c2cc(Cl)ccc2N1 [nordiazepam] | 3 µg/mL
62 | CCOC(=O)C1(c2ccccc2)CCNCC1 [normeperidine] | 1 µg/mL
63 | COc1ccc2c3c1O[C@H]1C(=O)CC[C@@]4(O)[C@@H](C2)N(C)CC[C@]314 [oxycodone] | 10 µg/mL
64 | CCOc1ccc(N)cc1 [p-phenetidine] | 106.35 µg/mL
65 | Oc1ccc(C(F)(F)F)cc1 [p-trifluoromethylphenol] | 2.5 µg/mL
66 | CCOc1ccc(NC(C)=O)cc1 [phenacetin] | 250 µg/mL
67 | NCCc1ccccc1.O=S(=O)(O)O [phenethylamine sulfate] | 250 µg/mL
68 | O=C(Oc1ccccc1C(=O)O)c1ccccc1O [salsalate] | 250 µg/mL
69 | CN[C@H]1CC[C@@H](c2ccc(Cl)c(Cl)c2)c2ccccc21 [sertaline] | 7.5 µg/mL
70 | CN1C(=O)C(O)N=C(c2ccccc2)c2cc(Cl)ccc21 (stereo not shown) [temazepam] | 3 µg/mL
